Assays:
histamine H4 receptor [1] = molecular target: T1, histamine H4 receptor (Homo sapiens, UniProt Q9H3N8); assay: In vitro histamine H4 potency in FLIPR (Ca2+ flux, Fluo-4) in HEK-293 cells coexpressing Gαqi5; format: cell-based; details: Kb values for antagonists and inverse agonists, EC50 values for partial agonists; HEK-293 cells with Gαqi5, Fluo-4
T1 construct: expressed in transfected cells
Excerpt: There are many methods available to show the effectiveness of compounds as histamine H4 receptor ligands. Histamine H4 receptors from mammalian species have been cloned. Methods to clone, express, and assess the potency and functional activity of such cloned genes are well known to those skilled in the art of molecular biology. […] Before testing, cells are loaded with a Ca^+2 sensitive fluorescent dye, in this case Fluo-4. In the case of partial agonist or agonist ligands, addition of compound to the cells leads to the increase in intracellular Ca^+2, which is detected by FLIPR (Fluorescence Imaging Plate Reader; Molecular Devices, Sunnyvale, Calif.) technology. […] The fluorescence intensities measured before addition of the test compound are subtracted from the fluorescence intensities at later time points. Peak response values determined at each concentration of ligand are expressed as a percentage of the response obtained with the full agonist histamine. Concentration versus response data are analyzed to obtain compound potency as Kb values for antagonists and inverse agonists and as EC50 values for partial agonists.

histamine H4 receptor [2] = molecular target: T1, histamine H4 receptor; assay: [3H]-histamine competition binding assay, membranes of HEK-293 cells transiently transfected with histamine H4 receptor; details: Ki by Cheng-Prusoff equation; HEK-293 membranes, 25° C., 1 hour, pH 7.4; read-out: Potency (nM), displacement of 3H-histamine
Protocol: In this assay, membranes were prepared from HEK-293 cells transiently transfected with the pCINeo expression vector harboring the histamine H4 receptor by homogenization of the cells on ice in TE buffer (50 mM Tris-HCl buffer, pH 7.4, containing 5 mM EDTA), 1 mM benzamidine, 2 μg/ml aprotinin, […] leupeptin, and 1 μg/ml pepstatin. The homogenate was centrifuged at 40,000 g for 20 minutes at 4° C. This step was repeated, and the resulting pellet was resuspended in TE buffer. Aliquots were frozen at −70° C. until needed. On the day of assay, membranes were thawed and diluted with TE buffer. Competition radioligand binding assays were performed with increasing concentrations of test compound in the presence of [^3H]-histamine incubated at 25° C. for 1 hour in a total volume of 0.5 mL of 50 mM Tris, 5 mM EDTA, pH 7.4. All binding reactions were terminated by filtration under vacuum onto polyethylenimine (0.3%) presoaked Unifilters (PerkinElmer Life Sciences) or Whatman GF/B filters (Whatman, Clifton, N.J.), followed by three brief washes with 4 ml of ice-cold TE buffer. Bound radiolabel was determined by liquid scintillation counting. For all of the radioligand competition binding assays, IC50 values and Hill slopes were determined by Hill transformation of the data, and Ki values were determined by the Cheng-Prusoff equation.

T1 sequence (Q9H3N8 whole entry, species assumed): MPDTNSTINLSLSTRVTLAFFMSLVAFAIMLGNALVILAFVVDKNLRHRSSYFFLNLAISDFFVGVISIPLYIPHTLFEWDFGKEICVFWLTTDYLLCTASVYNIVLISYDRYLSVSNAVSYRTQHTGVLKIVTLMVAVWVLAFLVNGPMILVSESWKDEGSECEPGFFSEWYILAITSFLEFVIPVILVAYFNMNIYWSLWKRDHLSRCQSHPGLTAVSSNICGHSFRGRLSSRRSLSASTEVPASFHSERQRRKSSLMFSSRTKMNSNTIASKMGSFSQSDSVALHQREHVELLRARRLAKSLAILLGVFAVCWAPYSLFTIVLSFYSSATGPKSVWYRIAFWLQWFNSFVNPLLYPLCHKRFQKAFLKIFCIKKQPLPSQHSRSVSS

SMILES	Potency (nM), in vitro histamine H4 potency in FLIPR (histamine H4 receptor [1]) [nM]	Ki (histamine H4 receptor [2]) [nM]
Nc1nc(N2CC[C@@H]3CNC[C@@H]32)c2c(n1)C1(CCCC1)CCC2 [Example 6, 4′-((3aR,6aR)-hexahydropyrrolo[3,4-b]pyrrol-1(2H)-yl)-6′,7′-dihydro-5′H-spiro[cyclopentane-1,8′-quinazolin]-2′-amine]	1097	–
CN1CCC(Nc2nc(N)nc3c2CCCC32CCCC2)CC1 [Example 10, N4′-(1-methylpiperidin-4-yl)-6′,7′-dihydro-5′H-spiro[cyclopentane-1,8′-quinazoline]-2′,4′-diamine]	22	–
Nc1nc(N2CC[C@@H](N)C2)c2c(n1)C1(CCCC1)CCC2 [Example 4, (R)-4′-(3-aminopyrrolidin-1-yl)-6′,7′-dihydro-5′H-spiro[cyclopentane-1,8′-quinazolin]-2′-amine]	2.7	4.6
CN1CC[C@@H](Oc2nc(N)nc3c2CCCC32CCCC2)C1 [Example 15, (R)-4′-(1-methylpyrrolidin-3-yloxy)-6′,7′-dihydro-5′H-spiro[cyclopentane-1,8′-quinazolin]-2′-amine]	20	–
Nc1nc(N2CC[C@H](N)C2)c2c(n1)C1(CCCC1)CCC2 [Example 5, (S)-4′-(3-aminopyrrolidin-1-yl)-6′,7′-dihydro-5′H-spiro[cyclopentane-1,8′-quinazolin]-2′-amine]	53	–
Nc1nc(N2CCNCC2)c2c(n1)C1(CCCC2)Cc2ccccc2C1 [Example 19, 4-(piperazin-1-yl)-1′,3′,5,6,7,8-hexahydrospiro[cyclohepta[d]pyrimidine-9,2′-inden]-2-amine]	26915	–
Nc1nc(N2CC(N)C2)c2c(n1)C1(CCCC1)CCC2 [Example 13, 4′-(3-aminoazetidin-1-yl)-6′,7′-dihydro-5′H-spiro[cyclopentane-1,8′-quinazolin]-2′-amine]	68851	–
CNC1CN(c2nc(N)nc3c2CCCC32CCCC2)C1 [Example 3, 4′-(3-(methylamino)azetidin-1-yl)-6′,7′-dihydro-5′H-spiro[cyclopentane-1,8′-quinazolin]-2′-amine]	4.6	1.4
Nc1nc(N2CC[C@@H](N)C2)c2c(n1)C1(CCCC2)Cc2ccccc2C1 [Example 20, (R)-4-(3-aminopyrrolidin-1-yl)-1′,3′,5,6,7,8-hexahydrospiro[cyclohepta[d]pyrimidine-9,2′-inden]-2-amine]	499	–
Nc1nc(N2CCC(N)(C(=O)O)CC2)c2c(n1)C1(CCCC1)CCC2 [Example 12, 4-amino-1-(2′-amino-6′,7′-dihydro-5′H-spiro[cyclopentane-1,8′-quinazoline]-4′-yl)piperidine-4-carboxylic Acid]	21251	–
Nc1nc(N2CC[C@H]3CNC[C@H]32)c2c(n1)C1(CCCC1)CCC2 [Example 7, 4′-((3aS,6aS)-hexahydropyrrolo[3,4-b]pyrrol-1(2H)-yl)-6′,7′-dihydro-5′H-spiro[cyclopentane-1,8′-quinazolin]-2′-amine]	1027	–
CN[C@@H]1CCN(c2nc(N)nc3c2CCCC32CCCC2)C1 [Example 1, (R)-4′-(3-(methylamino)pyrrolidin-1-yl)-6′,7′-dihydro-5′H-spiro[cyclopentane-1,8′-quinazolin]-2′-amine]	2.9	2.6
Nc1nc(N2C[C@H]3CCCN[C@H]3C2)c2c(n1)C1(CCCCC1)CCCC2 [Example 18, 4-((4aR,7aR)-tetrahydro-1H-pyrrolo[3,4-b]pyridin-6(2H,7H,7aH)-yl)-5,6,7,8-tetrahydrospiro[cyclohepta[d]pyrimidine-9,1′-cyclohexan]-2-amine]	99	–
Nc1nc(N2CCNCC2)c2c(n1)C1(CCCCC1)CCCC2 [Example 16, 4-(piperazin-1-yl)-5,6,7,8-tetrahydrospiro[cyclohepta[d]pyrimidine-9,1′-cyclohexan]-2-amine]	48	9.3
CN(C)CCOc1nc(N)nc2c1CCCC21CCCC1 [Example 14, 4′-(2-(dimethylamino)ethoxy)-6′,7′-dihydro-5′H-spiro[cyclopentane-1,8′-quinazolin]-2′-amine]	7.8	–
COC(=O)C1(N)CCN(c2nc(N)nc3c2CCCC32CCCC2)CC1 [Example 11, Methyl 4-amino-1-(2′-amino-6′,7′-dihydro-5′H-spiro[cyclopentane-1,8′-quinazoline]-4′-yl)piperidine-4-carboxylate]	12624	–
Nc1nc(N2CC[C@@H](N)C2)c2c(n1)C1(CCCCC1)CCCC2 [Example 17, (R)-4-(3-aminopyrrolidin-1-yl)-5,6,7,8-tetrahydrospiro[cyclohepta[d]pyrimidine-9,1′-cyclohexan]-2-amine]	47	18
Nc1nc(N2CCCNCC2)c2c(n1)C1(CCCC1)CCC2 [Example 8, 4′-(1,4-diazepan-1-yl)-6′,7′-dihydro-5′H-spiro[cyclopentane-1,8′-quinazolin]-2′-amine]	9.8	2.8
Nc1nc(N2CCNCC2)c2c(n1)C1(CCCC1)CCC2 [Example 2, 4′-(piperazin-1-yl)-6′,7′-dihydro-5′H-spiro[cyclopentane-1,8′-quinazolin]-2′-amine]	2.8	1.1
Nc1nc(N2C[C@H]3CCCN[C@H]3C2)c2c(n1)C1(CCCC1)CCC2 [Example 9, 4′-((4aR,7aR)-tetrahydro-1H-pyrrolo[3,4-b]pyridin-6(2H,7H,7aH)-yl)-6′,7′-dihydro-5′H-spiro[cyclopentane-1,8′-quinazolin]-2′-amine]	8.5	3.4

From patent publication US8278313B2, “Macrocyclic spiro pyrimidine derivatives” (Abbott Laboratories, priority 2008, dated 2012)
